Reference: US10473666B2, “Dye compounds” (SFC CO., LTD., priority 2015, dated 2019)

Experiments:
[1] = Absorption spectra, emission spectra, molar extinction coefficients and quantum yields of the dye compounds; format: physicochemical
[2] = Photophysical properties incl. two-photon cross-sections (femtosecond fluorescence measurement technique); format: physicochemical; conditions: for eΦ: Molar extinction coefficient × fluorescence quantum yield: in M-1cm-1
Description: All measurements were performed in DMSO, ethanol, and PBS buffer. Two-photon cross-sections (δ) were measured using a femtosecond (fs) fluorescence measurement technique.

SMILES | Quantum yield ([1]; Table 6, solvent DMSO) | ε (molar extinction coefficient) ([1]; Table 6, solvent DMSO) | λabs ([1]; Table 6, solvent DMSO) [nm] | λem ([1]; Table 6, solvent DMSO) [nm] | Quantum yield ([1]; Table 6, solvent EtOH) | ε (molar extinction coefficient) ([1]; Table 6, solvent EtOH) | λabs ([1]; Table 6, solvent EtOH) [nm] | λem ([1]; Table 6, solvent EtOH) [nm] | Quantum yield ([1]; Table 6, solvent PBS) | ε (molar extinction coefficient) ([1]; Table 6, solvent PBS) | λabs ([1]; Table 6, solvent PBS) [nm] | λem ([1]; Table 6, solvent PBS) [nm] | other results
CC1=CC(C)(C)N2CCCc3c4c(cc1c32)C=C1C2=[N+](CCC1O4)c1ccccc1C2(C)C (stereo not shown) [Formula 105] | 0.70 | 37,000 M^−1cm^−1 | 613 | 649 | 0.50 | 44,000 M^−1cm^−1 | 611 | 645 | 0.28 | 35,000 M^−1cm^−1 | 604 | 643 | –
CC1=CC(C)(C)N(CCCCCC(=O)O)c2cc3c(cc21)C=C1C2=[N+](CCC1O3)c1ccc3ccccc3c1C2(C)C (stereo not shown) [Formula 106] | 0.72 | 55,000 M^−1cm^−1 | 620 | 660 | 0.59 | 70,000 M^−1cm^−1 | 620 | 657 | 0.21 | 29,000 M^−1cm^−1 | 616 | 652 | –
CC1(C)C2=C3C=C4C=C(C=O)C(=O)C=C4OC3CCN2c2ccccc21 (stereo not shown) [Formula 103] | 0.88 | 108,000 M^−1cm^−1 | 566 | 586 | 0.84 | 70,000 M^−1cm^−1 | 547 | 574 | 0.79 | 48,000 M^−1cm^−1 | 516 | 563 | –
C1=C2c3sc4ccccc4[n+]3CCC2Oc2c1cc1c3c2CCCN3CCC1 (stereo not shown) [Formula 101] | 0.70 | 54,000 M^−1cm^−1 | 584 | 630 | 0.87 | 66,000 M^−1cm^−1 | 585 | 623 | 0.61 | 49,000 M^−1cm^−1 | 578 | 619 | d: Peak two-photon cross-section ([2]; Buffer (PBS buffer)): 89 10^−50 cm^4s per photon (GM); dΦ: Two-photon action cross-section ([2]; Buffer (PBS buffer)): 54 GM; Φ: Fluorescence quantum yield ([2]; Buffer (PBS buffer)): 0.61; λ^(2)max^abs: Maximum wavelength in two-photon absorption spectrum ([2]; Buffer (PBS buffer)): 740 nm; λmax^fl: Maximum wavelength in single-photon emission spectrum ([2]; Buffer (PBS buffer)): 619 nm; eΦ: Molar extinction coefficient × fluorescence quantum yield ([2]; Buffer (PBS buffer)): 29890; Φ: Fluorescence quantum yield ([2]; DMSO): 0.70; λmax^fl: Maximum wavelength in single-photon emission spectrum ([2]; DMSO): 630 nm; dΦ: Two-photon action cross-section ([2]; EtOH): 54 GM; λ^(2)max^abs: Maximum wavelength in two-photon absorption spectrum ([2]; EtOH): 720 nm
C[n+]1c(/C=C/C2=CC3=CC4=C5N(CCC4OC3=CC2=O)c2ccccc2C5(C)C)sc2ccccc21 (stereo not shown) [Formula 104] | 0.38 | 52,000 M^−1cm^−1 | 646 | 685 | – | – | – | – | 0.09 | 28,000 M^−1cm^−1 | 559 | 572 | –
CC1(C)C2=[N+](CCC3Oc4c(cc5c6c4CCCN6CCC5)C=C23)c2ccccc21 (stereo not shown) [Formula 100] | 0.90 | 65,000 M^−1cm^−1 | 594 | 618 | 0.90 | 75,000 M^−1cm^−1 | 592 | 612 | 0.80 | 54,000 M^−1cm^−1 | 589 | 608 | d: Peak two-photon cross-section ([2]; Buffer (PBS buffer)): 272 10^−50 cm^4s per photon (GM); dΦ: Two-photon action cross-section ([2]; Buffer (PBS buffer)): 177 GM; Φ: Fluorescence quantum yield ([2]; Buffer (PBS buffer)): 0.65; λ^(2)max^abs: Maximum wavelength in two-photon absorption spectrum ([2]; Buffer (PBS buffer)): 740 nm; λmax^fl: Maximum wavelength in single-photon emission spectrum ([2]; Buffer (PBS buffer)): 611 nm; eΦ: Molar extinction coefficient × fluorescence quantum yield ([2]; Buffer (PBS buffer)): 61750; Φ: Fluorescence quantum yield ([2]; DMSO): 0.90; λmax^fl: Maximum wavelength in single-photon emission spectrum ([2]; DMSO): 618 nm; dΦ: Two-photon action cross-section ([2]; EtOH): 114 GM; λ^(2)max^abs: Maximum wavelength in two-photon absorption spectrum ([2]; EtOH): 750 nm
Oc1ccc2c(c1)OC1CC[n+]3c(sc4ccccc43)C1=C2 (stereo not shown) [Formula 102] | 0.99 | 23,000 M^−1cm^−1 | 570 | 586 | 0.78 | 6,800 M^−1cm^−1 | 557 | 578 | 0.70 | 7,100 M^−1cm^−1 | 524 | 571 | d: Peak two-photon cross-section ([2]; Buffer (PBS buffer)): 60 10^−50 cm^4s per photon (GM); dΦ: Two-photon action cross-section ([2]; Buffer (PBS buffer)): 42 GM; Φ: Fluorescence quantum yield ([2]; Buffer (PBS buffer)): 0.70; λ^(2)max^abs: Maximum wavelength in two-photon absorption spectrum ([2]; Buffer (PBS buffer)): 910 nm; λmax^fl: Maximum wavelength in single-photon emission spectrum ([2]; Buffer (PBS buffer)): 571 nm; eΦ: Molar extinction coefficient × fluorescence quantum yield ([2]; Buffer (PBS buffer)): 4970; Φ: Fluorescence quantum yield ([2]; DMSO): 1.00; λmax^fl: Maximum wavelength in single-photon emission spectrum ([2]; DMSO): 586 nm; dΦ: Two-photon action cross-section ([2]; EtOH): 7.6 GM; λ^(2)max^abs: Maximum wavelength in two-photon absorption spectrum ([2]; EtOH): 750 nm
CC1(C)C2=C3C=C4C=C(C(=O)O)C(=O)C=C4OC3CCN2c2ccc(S(=O)(=O)O)cc21 (stereo not shown) [Formula 53] | – | – | – | – | – | – | – | – | – | – | – | – | Quantum yield ([1]; Table 4, solvent DMSO): 0.95; ε (molar extinction coefficient) ([1]; Table 4, solvent DMSO): 33,000 M^−1cm^−1; λabs ([1]; Table 4, solvent DMSO): 546 nm; λem ([1]; Table 4, solvent DMSO): 570 nm
CC1=CC(C)(C)N2CCCc3c4c(cc1c32)C=C1C2=[N+](CCC1O4)c1ccc3ccccc3c1C2(C)C (stereo not shown) [Formula 107] | 0.70 | 40,000 M^−1cm^−1 | 629 | 664 | 0.52 | 50,000 M^−1cm^−1 | 628 | 659 | 0.29 | 37,000 M^−1cm^−1 | 624 | 655 | –
CC1(C)C2=C3C=C4C=C(c5nc6ccc(C(=O)O)cc6s5)C(=O)C=C4OC3CCN2c2ccccc21 (stereo not shown) [Formula 51] | – | – | – | – | – | – | – | – | – | – | – | – | Quantum yield ([1]; Table 4, solvent DMSO): 0.75; ε (molar extinction coefficient) ([1]; Table 4, solvent DMSO): 78,800 M^−1cm^−1; λabs ([1]; Table 4, solvent DMSO): 595 nm; λem ([1]; Table 4, solvent DMSO): 621 nm
CC1(C)C2=C3C=C4C=CC(=O)C=C4OC3CCN2c2ccc(CC(=O)O)cc21 (stereo not shown) [Formula 52] | – | – | – | – | – | – | – | – | – | – | – | – | Quantum yield ([1]; Table 4, solvent PBS): 0.61; λabs ([1]; Table 4, solvent PBS): 541 nm; λem ([1]; Table 4, solvent PBS): 564 nm
COc1ccc2c(c1)OC1CC[N+]3=C(C1=C2)C(C)(C)c1ccccc13 (stereo not shown) [Formula 99] | 0.65 | 21,000 M^−1cm^−1 | 467 | 563 | 0.52 | 22,000 M^−1cm^−1 | 474 | 558 | 0.42 | 30,000 M^−1cm^−1 | 463 | 558 | –
CC[N+]1=C(/C=C/C=C2/N(CCCCCC(=O)O)c3ccccc3C2(C)C)C(C)(C)c2ccccc21 [Comparative, reference compound] | – | – | – | – | – | – | – | – | – | – | – | – | Q.Y. (quantum yield) ([1]; Table 1, solvent not given): 0.04; ε (molar extinction coefficient) ([1]; Table 1, solvent not given): 150,000 M^−1cm^−1; λabs ([1]; Table 1, solvent not given): 548 nm; λem ([1]; Table 1, solvent not given): 562 nm; Quantum yield ([1]; Table 4, solvent not given): 0.04; ε (molar extinction coefficient) ([1]; Table 4, solvent not given): 150,000 M^−1cm^−1; λabs ([1]; Table 4, solvent not given): 548 nm; λem ([1]; Table 4, solvent not given): 562 nm; Quantum yield ([1]; Table 6, solvent not given): 0.04; ε (molar extinction coefficient) ([1]; Table 6, solvent not given): 150,000 M^−1cm^−1; λabs ([1]; Table 6, solvent not given): 548 nm; λem ([1]; Table 6, solvent not given): 562 nm
